# Measurements: patent US6900200B2, “Tricyclic hydroxy carboxamides and derivatives thereof tocolytic oxytocin receptor antagonists” (Wyeth, priority 2001, dated 2005)
# Biological target: T1, human vasopressin V2 receptor subtype (Homo sapiens, UniProt P30518)
# T1 construct: host or cells: CHO cells, pZeoSV vector
# Assay: Vasopressin binding in CHO cell membranes expressing human vasopressin V2 subtype receptors ([3H]arginine vasopressin radioligand binding)
# Settings: @ 100 nM
# From the text: Vasopressin Binding in Chinese Hamster Ovary Cell Membranes Expressing Human Vasopressin V2 Subtype Receptors
# Chinese Hamster Ovary (CHO) cells stably transfected with the human V2 subtype receptors were obtained from M. Thibonnier, Case Western Reserve University School of Medicine, Cleveland, Ohio.
# A. Passaging and Amplification of Cells
# CHO cells transfected with the human vasopressin V2 subtype receptors obtained from M. Thibonnier (pZeoSV vector) are allowed to grow to confluency (approx. >90%) in T-150 flasks under sterile conditions, in a cell culture medium ofF-12 Nutrient Mixture (HAM) with L-glutamine (Gibco Cat. #11765-054) containing 15 mM HEPES (Gibco Cat. #15630-080), 1% antibiotic/antimycotic (add 5 mL 100×, Gibco Cat. #15240-062 per 500 mL F-12), 250 μg/mL Zeocin (add 1.25 mL of 100 mg/mL Invitrogen R-250-01 per 500 mL F-1 2) and 10% Fetal Bovine Serum (Qualified, heat inactivated, Gibco Cat. #16140-063). The medium is removed by aspiration and the cells washed with 10 mL of Hank's Balanced Salt solution (Gibco Cat. #14175-095). The salt solution is removed by aspiration and the cells trypsinized with 5 mL of trypsin-EDTA (0.05% trypsin, 0.53 mM EDTA-4Na, Gibco Cat. #25300-070) for 1 min. The trypsin is removed by aspiration and the cells dislodged by tapping. Cell Culture medium (e.g. 30 mL for 1:30 split) is immediately added and mixed well to inactivate trypsin. 1 mL of detached cells is added to new culture flasks containing fresh Cell Culture medium (e.g. into 25 mL per T-150 flask), and mixed gently. The cells are incubated at 37° C. in 5% CO2. The medium is changed at 3 to 4 day interval (or as appropriate). The cells grow to confluency (approx. >75%-95%) within 7-8 days. All steps are done under sterile conditions.
# The cells are washed twice gently with Hank's Balanced Salt solution (e.g. use 10 mL per T-150 flask). The excess solution is removed and the cells bathed for 15-30 min. in an enzyme-free Cell Dissociation Buffer (e.g. use 8 mL Hank's Based, Gibco Cat. # 13150-016 per T-150 flask) until cells are loosened. The contents are transferred to centrifuge tubes (50 mL) kept in ice bath. All subsequent steps are done at 4° C. The tubes are centrifuged at 300×g for 15 min (1380 rpm on SORVAL, Model RT6000D, using the rotor for 50 mL tubes). The supernatant is discarded and the cells suspended in homogenizing buffer (10 mM Tris-HCl containing 0.25 M sucrose and 1 mM EDTA, pH 7.4) ensuring that the volume of the buffer is about ten times the volume of the cell pellet. The cells are pooled into a centrifuge tube (50 mL) and homogenized with Polytron at setting 6 for 10 sec. The homogenate is transferred into a Potter-Elvjehm homogenizer and homogenized with 3 strokes. The homogenate is centrifuged at 1500×g for 60 min at 4° C. (3100 rpm using SORVAL, model RT6000D, using the rotor for 50 mL tubes). The pellet is discarded. The supernatant is centrifuged at 100,000×g for 60 min. at 4° C. (Beckman L8-80M ultracentrifuge; spin at 37,500 rpm with rotor type 70 Ti for 50 mL tubes; 38,000 rpm with type 80Ti for 15 mL tubes; or 35,800 rpm with rotor type 45Ti). The supernantant is discarded and the pellet suspended in 3 to 4 mL of Tris buffer (50 mM TRIS—HCl, pH 7.4). The protein content is estimated by the Bradford or Lowry method. The volume of the membrane suspension is adjusted with the membrane buffer (50 mM Tris-HCl containing 0.1% BSA and 0.1 mM PMSF) to give 3.0 mg/mL (or as appropriate) of protein. The membranes are aliquoted and stored at −70. ° C.
# C. Radioligand Binding Assay
# In wells of a 96-well format microtiter plate, is added 90, 110 or 130 μL (to make up a final volume of 200 μL) of assay buffer containing 50 mM of Tris-HCl (pH 7.4), […], 1 mg % aprotinin, 1 mg % leupeptin, 2 mg % 1,10-phenanthroline, 10 mg % trypsin inhibitor, and 0.1 mM PMSF. The inhibitors are added on the day of the experiment. […]
row,Compound,inhibition at 0.1 µM [%]
1,"Cc1cc(C(=O)N2Cc3ccc(C(=O)NC(CO)(CO)CO)n3Cc3ccccc32)ccc1-c1ccccc1C(F)(F)F [Example 3, 10-[(2-Methyl-2′-trifluoromethyl-[1,1′-biphenyl]-4-yl)carbonyl]-10,11-dihydro-5H-pyrrolo[2,1-c][1,4]benzodiazepine-3-carboxylic acid (2-hydroxy-1,1-bis-hydroxymethyl-ethyl)-amide]",13
2,"COc1cc(C(=O)N2Cc3ccc(C(=O)N4CCN(CCO)CC4)n3Cc3ccccc32)ccc1-c1cccc2ccccc12 [Example 41, [4-(2-Hydroxyethyl)-1-piperazinyl]{10-[3-methoxy-4-(1-naphthyl)benzoyl]-10,11-dihydro-5H-pyrrolo[2,1-c][1,4]benzodiazepin-3-yl}methanone]",35
3,"Cc1ccccc1-c1ccc(C(=O)N2Cc3ccc(C(=O)N4CCN(CCO)CC4)n3Cc3ccccc32)cc1 [Example 45, [4-(2-Hydroxyethyl)-1-piperazinyl]{10-[(2′-methyl[1,1′-biphenyl]-4-yl)carbonyl]-10,11-dihydro-5H-pyrrolo[2,1-c][1,4]benzodiazepin-3-yl}methanone]",9
4,"COc1cc(C(=O)N2Cc3ccc(C(=O)N4CCN(CCO)CC4)n3Cc3ccccc32)ccc1-n1c(C)ccc1C [Example 52, {10-[4-(2,5-Dimethyl-1H-pyrrol-1-yl)-3-methoxybenzoyl]-10,11-dihydro-5H-pyrrolo[2,1-c][1,4]benzodiazepin-3-yl}[4-(2-hydroxyethyl)-1-piperazinyl]methanone]",3
5,"Cc1cc(C(=O)N2Cc3ccc(C(=O)N4CCN(CCO)CC4)n3Cc3ccccc32)ccc1-c1ccccc1C(F)(F)F [Example 48, [4-(2-Hydroxyethyl)-1-piperazinyl](10-{[2-methyl-2′-(trifluoromethyl)[1,1′-biphenyl]-4-yl)carbonyl}-10,11-dihydro-5H-pyrrolo[2,1-c][1,4]benzodiazepin-3-yl)methanone]",11
6,"COc1ccccc1-c1ccc(C(=O)N2Cc3ccc(C(=O)N4CCN(CCO)CC4)n3Cc3ccccc32)cc1C [Example 40, [4-(2-Hydroxyethyl)-1-piperazinyl]{10-[(2′-methoxy-2-methyl[1,1′-biphenyl]-4yl)carbonyl]-10,11-dihydro-5H-pyrrolo[2,1-c][1,4]benzodiazepin-3-yl}methanone]",25
7,"COc1ccccc1-c1ccc(C(=O)N2Cc3ccc(C(=O)N(C)C[C@H](O)CO)n3Cc3ccccc32)cc1C (single isomer, unassigned) [Example 15]",74

# Same assay, conditions: value printed in parentheses
row,Compound,IC50 [nM]
1,"COc1ccccc1-c1ccc(C(=O)N2Cc3ccc(C(=O)N(C)C[C@H](O)[C@@H](O)[C@H](O)[C@H](O)CO)n3Cc3ccccc32)cc1C [Example 17, 10-[(2′-Methoxy-2-methyl-[1,1′-biphenyl]-4-yl)carbonyl]-10,11-dihydro-5H-pyrrolo[2,1-c][1,4]benzodiazepine-3-carboxylic acid methyl-[(2S,3R,4R, 5R)-2,3,4,5,6-pentahydroxy-hexyl)-amide]",144
2,"Cc1cc(C(=O)N2Cc3ccc(C(=O)N(C)CC4COC(=O)O4)n3Cc3ccccc32)ccc1-c1ccccc1C(F)(F)F (stereo not drawn) [Example 11, 10-[(2-Methyl-2′-trifluoromethyl-[1,1′-biphenyl]-4-yl)carbonyl]-10,11-dihydro-5H-pyrrolo[2,1-c][1,4]benzodiazepine-3-carboxylic acid methyl-[(2-oxo-[1,3]dioxolan-4-yl)methyl]-amide]",356
3,"Cc1cc(C(=O)N2Cc3ccc(C(=O)N4CCN(C[C@H](O)CO)CC4)n3Cc3ccccc32)ccc1-c1ccccc1C(F)(F)F [Example 5, (2S)-3-{4-[(10-{[2-Methyl-2′-trifluoromethyl-[1,1′-biphenyl]-4-yl]carbonyl}-10,11-dihydro-5H-pyrrolo[2,1-c][1,4]benzodiazepin-3-yl)carbonyl]piperazin-1-yl}propane-1,2-diol]",1190
4,"Cc1ccc(-c2ccc(C(=O)N3Cc4ccc(C(=O)N(C)CC(O)CO)n4Cc4ccccc43)cc2)c2ccccc12 (stereo not drawn) [Example 26, 10-{[4-(4-Methyl-naphthalen-1-yl)phenyl]carbonyl}-10,11-dihydro-5H-pyrrolo[2,1-c][1,4]benzodiazepine-3-carboxylic acid (2,3-dihydroxy-propyl)-N-methylamide]",11.3
5,"Cc1cc(C(=O)N2Cc3ccc(C(=O)N(C)C[C@H](O)[C@@H](O)[C@H](O)[C@H](O)CO)n3Cc3ccccc32)ccc1-c1ccccc1C(F)(F)F [Example 4, 10-[(2-Methyl-2′-trifluoromethyl-[1,1′-biphenyl]-4-yl)carbonyl]-10,11-dihydro-5H-pyrrolo[2,1-c][1,4]benzodiazepine-3-carboxylic acid methyl-((2S,3R,4R,5R)-2,3,4,5,6-pentahydroxy-hexyl)-amide]",617
6,"COc1cc(-c2ccccc2C)c(Cl)cc1C(=O)N1Cc2ccc(C(=O)N3CCN(CCO)CC3)n2Cc2ccccc21 [Example 39, {10-[(6-Chloro-3-methoxy-2′-methyl[1,1′-biphenyl]-4-yl)carbonyl]-10,11-dihydro-5H-pyrrolo[2,1-c][1,4]benzodiazepin-3-yl}[4-(2-hydroxyethyl)-1-piperazinyl]methanone]",383
7,"{(2S)-1-[(10-{[2-Methoxy-2(trifluoromethyl)[1,1′-biphenyl]-4-yl]carbonyl}-10,11-dihydro-5H-pyrrolo[2,1-c][1,4]benzodiazepin-3-yl)carbonyl]pyrrolidin-2-yl}-methanol [Example 36]",2070
8,"CC(=O)OCC(CN(C)C(=O)c1ccc2n1Cc1ccccc1N(C(=O)c1ccc(-c3ccccc3C(F)(F)F)c(C)c1)C2)OC(C)=O (stereo not drawn) [Example 13, 2-(Acetyloxy)-1-({methyl[(10-{[2-methyl-2′-trifluoromethyl-[1,1′-biphenyl]-4-yl]carbonyl}-10,11-dihydro-5H-pyrrolo[2,1-c][1,4]benzodiazepin-3-yl)carbonyl]amino}methyl)ethyl acetate]",990
9,"COCC(CN(C)C(=O)c1ccc2n1Cc1ccccc1N(C(=O)c1ccc(-c3ccccc3C(F)(F)F)c(C)c1)C2)OC (stereo not drawn) [Example 10, N-(2,3-Dimethoxypropyl)-N-methyl-10-{[2-methyl-2′-trifluoromethyl-[1,1′-biphenyl]-4-yl]carbonyl}-10,11-dihydro-5H-pyrrolo[2,1-c][1,4]benzodiazepine-3-carboxamide]",2220
10,"COc1cc(C(=O)N2Cc3ccc(C(=O)N(C)C[C@@H](O)[C@H](O)[C@H](O)[C@@H](O)CO)n3Cc3ccccc32)ccc1-c1ccccc1C(F)(F)F (stereo in doubt) [Example 23, 10-{[2-Methoxy-2′-trifluoromethyl-[1,1′-biphenyl]-4-yl]carbonyl}-N-methyl-N-[(2R,3S,4R,5S)-2,3,4,5,6-pentahydroxyhexyl]-10,11-dihydro-5H-pyrrolo[2,1-c][1,4]benzodiazepine-3-carboxamide]",451
11,"Cc1cc(C(=O)N2Cc3ccc(C(=O)N4CCN(C[C@@H](O)CO)CC4)n3Cc3ccccc32)ccc1-c1ccccc1C(F)(F)F [Example 6, (2R)-3-{4-[(10-{[2-Methyl-2′-trifluoromethyl-[1,1′-biphenyl]-4-yl]carbonyl}-10,11-dihydro-5H-pyrrolo[2,1-c][1,4]benzodiazepin-3-yl)carbonyl]piperazin-1-yl}propane-1,2-diol]",1390
